We go through 17 compounds from patent US20250282749A1 (Tango Therapeutics, Inc., priority 2022, published 2025).

Holding throughout (assay type): cell-based
Test [1] has as its system PRMT5 (SDMA) in HAP1 MTAP-intact cell line. Briefly: SDMA in-cell western assay, HAP1 MTAP-intact cell line. The conditions noted are these: Homo sapiens, HAP1 MTAP-intact cell line (endogenous MTAP), read-out: Hap 1 MTAP intact IC50. From the text: (§1) HAP1 MTAP-intact is a cell line in which endogenous levels of MTAP are expressed, and HAP1 MTAP-deleted is an MTAP-null cell line.

Test [2] has as its system PRMT5 (SDMA) in HAP1 MTAP-deleted cell line. Briefly: SDMA in-cell western assay, HAP1 MTAP-deleted cell line. The following applies: for IC50 / IC90: Homo sapiens, SDMA in-cell western, HAP1 MTAP-deleted (MTAP-null) cell line; for Hap1 MTAP intact/deleted ratio: ratio of SDMA in-cell western IC50 in HAP1 MTAP-intact to IC50 in HAP1 MTAP-deleted cell line.
Description: as §1

For test [3], the system named is HAP1 MTAP-deleted cell line. Briefly: viability assay for the MTAP-deleted cell line. The following applies: Homo sapiens.

For the compound `CCc1cc(NC(=O)C(=O)N2C[C@@H](C)N(C(=O)C3(C(F)(F)F)CC3)C[C@@H]2c2ccc(F)cc2)cnc1N` [Compound 116, N-(6-amino-5-ethylpyridin-3-yl)-2-((2S,5R)-2-(4-fluorophenyl)-5-methyl-4-(1-(trifluoromethyl)cyclopropanecarbonyl)piperazin-1-yl)-2-oxoacetamide], the IC50 was greater than 50 nM in test [1], less than 5 nM in test [2] and less than 100 nM in test [3]. In test [2], this compound displayed an IC90 of less than 75 nM. Further, the “Hap1 MTAP intact/deleted ratio” value in test [2] was “A (an IC50 ratio greater than or equal to 30 fold)”.
The matching figures for `C[C@@H]1CN(C(=O)C(=O)Nc2cnc(N)c(C3COC3)c2)[C@@H](c2ccccc2)CN1C(=O)C(C)(C)C` [Compound 127, N-(6-amino-5-(oxetan-3-yl)pyridin-3-yl)-2-((2S,5R)-5-methyl-2-phenyl-4-pivaloylpiperazin-1-yl)-2-oxoacetamide]: 5 to 50 nM, 5 to 50 nM, less than 100 nM, less than 75 nM and “C (an IC50 ratio of less than 15 fold)”.
In the same order, the values of `Cc1cc(NC(=O)C(=O)N2C[C@@H](C)N(C(=O)OC(C)(C)C)C[C@@H]2c2ccccc2)cnc1N` [Compound 25] are 5 to 50 nM, less than 5 nM, less than 100 nM, less than 75 nM and “C (an IC50 ratio of less than 15 fold)”.
Turning to `C[C@H]1CN(C(=O)C(=O)Nc2cnc(N)c(C3CC3)c2)[C@H](c2ccc(F)cc2)CN1C(=O)OC(C)(C)C` (stereo in doubt) [Compound 146, tert-butyl 4-(2-((6-amino-5-cyclopropylpyridin-3-yl)amino)-2-oxoacetyl)-5-(4-fluorophenyl)-2-methylpiperazine-1-carboxylate], in test [1], the 50% inhibitory concentration (IC50) was greater than 50 nM. In test [2], the 50% inhibitory concentration (IC50) was greater than 50 nM, the 90% effect concentration (IC90) was greater than 125 nM and the “Hap1 MTAP intact/deleted ratio” value was “C (an IC50 ratio of less than 15 fold)”. Moreover, in test [3], the 50% inhibitory concentration (IC50) is greater than 1000 nM.
Regarding `CC(C)C(=O)N1C[C@H](c2ccc3scnc3c2)N(C(=O)C(=O)Nc2cnc(N)c(C3CC3)c2)C[C@H]1C` [Compound 93, N-(6-amino-5-cyclopropyl-3-pyridyl)-2-[(2S,5R)-2-(1,3-benzothiazol-5-yl)-5-methyl-4-(2-methylpropanoyl)piperazin-1-yl]-2-oxo-acetamide], the IC50 in test [1] lay in the range of 5 to 50 nM. Further, in test [2], the IC50 fell in the range of 5 to 50 nM, the 90% effect concentration (IC90) is less than 75 nM and the “Hap1 MTAP intact/deleted ratio” value was “C (an IC50 ratio of less than 15 fold)”. For the same compound, the IC50 in test [3] was less than 100 nM.
`CCc1cc(NC(=O)C(=O)N2C[C@@H](C)N(C(=O)C(C)(C)C)C[C@@H]2c2ccc(N3CCN(C)CC3)cc2)cnc1N` [Compound 130, N-(6-amino-5-ethylpyridin-3-yl)-2-((2S,5R)-5-methyl-2-(4-(4-methylpiperazin-1-yl)phenyl)-4-pivaloylpiperazin-1-yl)-2-oxoacetamide]: the half-inhibitory concentration (IC50) in test [1] is 5 to 50 nM. In addition, in test [2], the 50% inhibitory concentration (IC50) is less than 5 nM, the IC90 was less than 75 nM and the “Hap1 MTAP intact/deleted ratio” value is recorded as “C (an IC50 ratio of less than 15 fold)”. The compound also returned a concentration for half-maximal inhibition (IC50) in test [3] of less than 100 nM.
For the compound `C[C@@H]1CN(C(=O)C(=O)Nc2cncc3cn[nH]c23)[C@@H](c2ccc(N3CCN(C)CC3)cc2)CN1C(=O)C(C)(C)C` [Compound 142, 2-((2S,5R)-5-methyl-2-(4-(4-methylpiperazin-1-yl)phenyl)-4-pivaloylpiperazin-1-yl)-2-oxo-N-(1H-pyrazolo[4,3-c]pyridin-7-yl)acetamide], the IC50 in test [1] was greater than 50 nM. In test [2], the half-inhibitory concentration (IC50) lay in the range of 5 to 50 nM, the IC90 is less than 75 nM and the “Hap1 MTAP intact/deleted ratio” value is reported as “C (an IC50 ratio of less than 15 fold)”. This compound registered an IC50 in test [3] of less than 100 nM.
Turning to `C[C@@H]1CN(C(=O)C(=O)Nc2cnc(N)c(C3CC3)c2)[C@@H](c2ccc(F)cc2)CN1C(=O)OC(C)(C)C` (stereo in doubt) [Compound 144, tert-butyl 4-(2-((6-amino-5-cyclopropylpyridin-3-yl)amino)-2-oxoacetyl)-5-(4-fluorophenyl)-2-methylpiperazine-1-carboxylate], the concentration for half-maximal inhibition (IC50) in test [1] is greater than 50 nM. In test [2], the IC50 was less than 5 nM, the IC90 is less than 75 nM and the “Hap1 MTAP intact/deleted ratio” value is recorded as “B (an IC50 ratio greater than or equal to 15 fold but lower than 30 fold)”. Besides, the IC50 in test [3] is less than 100 nM.
In the same order, the values of `Cc1cc(NC(=O)C(=O)N2C[C@@H](C)N(C(=O)C(C)C)C[C@@H]2c2ccc(N3CCN(C)CC3)cc2)cnc1N` [Compound 11, N-(6-amino-5-methylpyridin-3-yl)-2-((2S,5R)-4-isobutyryl-5-methyl-2-(4-(4-methylpiperazin-1-yl)phenyl)piperazin-1-yl)-2-oxoacetamide] are 5 to 50 nM, less than 5 nM, less than 75 nM, “C (an IC50 ratio of less than 15 fold)” and less than 100 nM.
The matching figures for `CCc1cc(NC(=O)C(=O)N2C[C@@H](C)N(C(=O)C3(C(F)(F)F)CC3)C[C@@H]2c2ccc(C)cc2)cnc1N` [Compound 85, N-(6-amino-5-ethylpyridin-3-yl)-2-((2S,5R)-5-methyl-2-(p-tolyl)-4-(1-(trifluoromethyl)cyclopropanecarbonyl)piperazin-1-yl)-2-oxoacetamide]: greater than 50 nM, 5 to 50 nM, 75 to 125 nM, “B (an IC50 ratio greater than or equal to 15 fold but lower than 30 fold)” and less than 100 nM.
The matching figures for `CCc1cc(NC(=O)C(=O)N2C[C@@H](C)N(C(=O)C3(C)CC3)C[C@@H]2c2ccc(N3CCN(C)CC3)cc2)cnc1N` [Compound 105, N-(6-amino-5-ethylpyridin-3-yl)-2-((2S,5R)-5-methyl-4-(1-methylcyclopropanecarbonyl)-2-(4-(4-methylpiperazin-1-yl)phenyl)piperazin-1-yl)-2-oxoacetamide]: greater than 50 nM, less than 5 nM, less than 75 nM, “B (an IC50 ratio greater than or equal to 15 fold but lower than 30 fold)” and less than 100 nM.
For the compound `Cc1cc(NC(=O)C(=O)N2CCN(C(=O)C3(C(F)(F)F)CC3)[C@H](C)[C@H]2c2ccc(F)c(F)c2)cnc1N` [Compound 66], in test [1], the IC50 is greater than 50 nM. In addition, in test [2], the 50% inhibitory concentration (IC50) was 5 to 50 nM, the IC90 was greater than 125 nM and the “Hap1 MTAP intact/deleted ratio” value was “A (an IC50 ratio greater than or equal to 30 fold)”. Further, the IC50 in test [3] was 100 to 1000 nM.
The matching figures for `CCc1cc(NC(=O)C(=O)N2C[C@@H](C)N(C(=O)C3(C)CC3)C[C@@H]2c2ccc(F)cc2)cnc1N` [Compound 60, N-(6-amino-5-ethylpyridin-3-yl)-2-((2S,5R)-2-(4-fluorophenyl)-5-methyl-4-(1-methylcyclopropanecarbonyl)piperazin-1-yl)-2-oxoacetamide]: 5 to 50 nM, less than 5 nM, less than 75 nM, “C (an IC50 ratio of less than 15 fold)” and less than 100 nM.
`C[C@@H]1CN(C(=O)C(=O)Nc2cnc(N)c(C3CC3)c2)[C@@H](c2ccc(F)cc2)CN1C(=O)OC(C)(C)C` (stereo in doubt) [Compound 148, tert-butyl 4-(2-((6-amino-5-cyclopropylpyridin-3-yl)amino)-2-oxoacetyl)-5-(4-fluorophenyl)-2-methylpiperazine-1-carboxylate]: in test [1], the half-inhibitory concentration (IC50) was greater than 50 nM. Moreover, in test [2], the IC50 was less than 5 nM, the IC90 was greater than 125 nM and the “Hap1 MTAP intact/deleted ratio” value is reported as “A (an IC50 ratio greater than or equal to 30 fold)”. Moreover, the half-maximal inhibitory concentration (IC50) in test [3] is less than 100 nM.
On to `C[C@@H]1CN(C(=O)C(=O)Nc2cnc(N)c(C3COC3)c2)[C@@H](c2ccc(F)cc2)CN1C(=O)OC(C)(C)C` [Compound 2, (2R,5S)-tert-butyl 4-(2-((6-amino-5-(oxetan-3-yl)pyridin-3-yl)amino)-2-oxoacetyl)-5-(4-fluorophenyl)-2-methylpiperazine-1-carboxylate], for which the concentration for half-maximal inhibition (IC50) in test [1] is greater than 50 nM. In test [2], the IC50 is less than 5 nM, the IC90 is less than 75 nM and the “Hap1 MTAP intact/deleted ratio” value was “C (an IC50 ratio of less than 15 fold)”. The same compound came in with an IC50 in test [3] of less than 100 nM.
On to `Cc1cc(NC(=O)C(=O)N2CCN(C(=O)C3(C(F)(F)F)CC3)[C@H](C)[C@H]2c2ccc(F)cc2)cnc1N` (stereo in doubt) [Compound 118, N-(6-amino-5-methyl-3-pyridyl)-2-[2-(4-fluorophenyl)-3-methyl-4-[1-(trifluoromethyl)cyclopropanecarbonyl]piperazin-1-yl]-2-oxo-acetamide], for which the 50% inhibitory concentration (IC50) in test [1] was greater than 50 nM. Moreover, in test [2], the IC50 was 5 to 50 nM, the IC90 was greater than 125 nM and the “Hap1 MTAP intact/deleted ratio” value is reported as “B (an IC50 ratio greater than or equal to 15 fold but lower than 30 fold)”. The compound further yielded a concentration for half-maximal inhibition (IC50) in test [3] of 100 to 1000 nM.
The matching figures for `Cc1ccc([C@H]2CN(C(=O)C3(C(F)(F)F)CC3)[C@H](C)CN2C(=O)C(=O)Nc2cnc(N)c(C)c2)cc1` [Compound 128, N-(6-amino-5-methylpyridin-3-yl)-2-((2S,5R)-5-methyl-2-(p-tolyl)-4-(1-(trifluoromethyl)cyclopropanecarbonyl)piperazin-1-yl)-2-oxoacetamide]: greater than 50 nM, 5 to 50 nM, 75 to 125 nM, “B (an IC50 ratio greater than or equal to 15 fold but lower than 30 fold)” and less than 100 nM.
